Here are results for five compounds from patent publication US4435569A, “5-[Substituted amino methyl]pyrrolo[2,3-d]pyrimidine-4-one” (Takeda Chemical Industries, Ltd., priority 1981, dated 1984).

Each structure is given as a SMILES string. Counter-ions that a name gives are not always drawn.

The test system of assay [1] is Ehlrich carcinoma cells. In words: Growth inhibition of transplanted Ehrlich carcinoma in mice (Experimental Example 1 repeated). Conditions: mice with Ehrlich carcinoma; as Experimental Example 1: 0.5 mg/kg i.p. once daily for 20 days; day 35. The assay is classed as in vivo, mouse. Here is the method: (§1) One×10^6 Sarcoma 180 cells were subcutaneously transplanted into the right groin of an ICR mouse weighing about 20 grams and starting 24 hours after transplantation, 0.5 mg/kg of the compound of Example 1 in distilled water for injection was intraperitoneally administered once daily for 20 consecutive days. On day 35 after transplantation, the tumorous node was incised, weighed and compared with the specimen of the control (without medication) group. The percent inhibition was 58% relative to the control.
The experiment described in Experimental Example 1 was repeated except that mice transplanted with Ehlrich carcinoma cells were employed.

Assay [2] relates to Sarcoma 180. In words: Growth inhibition of subcutaneously transplanted Sarcoma 180 in ICR mouse (tumor weight). The assay is classed as in vivo. The following applies: 1×10^6 cells s.c., 0.5 mg/kg i.p. once daily for 20 consecutive days from 24 h, day 35. Here is the method:
as §1

Assay [3] deals with L5178Y cells. In words: Inhibitory effect upon the multiplication of tumor cells (L5178Y). The assay is classed as cell-based. The following applies: Mus musculus, RPMI1640 + 10% fetal calf serum, 48 hours, 37° C., concentration giving cell count of 50% of control, read-out: ED50 (the source's name). Here is the method:
Inhibitory effect upon the multiplication of tumor cells
The inhibitory effects of compound (I) upon the multiplication of cells were detected using L5178Y cells (tumor cell) in RPMI1640 medium+10% fetal calf serum for 48 hours at 37° C.
The result was expressed in the concentration of the drug giving a cell count of 50% (ED50) with the average number of cells for the control (not medicated) group on the 2nd day being taken as 100%.

As to `CCCNCc1c[nH]c2nc(N)[nH]c(=O)c12` [Example 1, 2-amino-5-propylaminomethylpyrrolo[2,3-d]pyrimidin-4-one (dihydrochloride)], the “percent inhibition rate (tumor weight relative to control)” value in assay [1] was determined as 75%. Moreover, the “percent inhibition (tumor weight relative to control)” value in assay [2] was 58%.
For the compound `Nc1nc2[nH]cc(CNC3CCCC3)c2c(=O)[nH]1` [Example 2, 2-amino-5-cyclopentylaminomethylpyrrolo[2,3-d]pyrimidin-4-one(dihydrochloride)], in assay [3], the IC50 came out at 40 µg/mL.
For `Nc1nc2[nH]cc(CN3CCCCC3)c2c(=O)[nH]1` [Example 3, 2-amino-5-piperidinomethylpyrrolo[2,3-d]pyrimidin-4-one (dihydrochloride)], the IC50 in assay [3] is 120 µg/mL.
In the case of `Nc1nc2[nH]cc(CNCc3ccccc3)c2c(=O)[nH]1` [Example 4, 2-amino-5-benzylaminomethylpyrrolo[2,3-d]pyrimidin-4-one], the IC50 in assay [3] came to 30 µg/mL.
Regarding `Nc1nc2[nH]cc(CN[C@H]3C=C[C@H](O)[C@@H]3O)c2c(=O)[nH]1` [Q base, reference compound], the IC50 in assay [3] was more than 200 µg/mL.
